Measurements from patent publication US20140106354A1, “Method of Diagnosing Cancer” (GARVAN INSTITUTE OF MEDICAL RESEARCH, priority 2011, published 2014).

Tests used:
Type in all cases: cell-based, human
A2780 cells = test: Pharmacological reactivation of methylated genes by 5-Aza-dC, Affymetrix U133 plus 2 expression arrays, A2780; details: A2780, 5 μM, 24 hours
Procedure: (§1) Experiments were performed in triplicate using ovarian cancer cell lines A2780 and CaOV3, derived from primary Type II EOC. Cell lines were treated at 30% confluence with 5 μM and 2.5 μMrespectively (concentrations previously optimized to minimize cellular toxicity, data not shown), with the DNA methyltransferase inhibitor 5-aza-2′ deoxycytidine (5-Aza-dC), (Sigma Aldrich, St. Louis Mo., USA) for 24 hours. Cells were then expanded to 90% confluency, media changed every 24 hr before extracting RNA (RNeasy, Qiagen). As a positive control, re-expression and DNA demethylation for the methylated gene DLEC1 was verified by qPCR and clonal bisulphite sequencing.
(§2) Total RNA from A2780 and CaOV3 cell lines, plus and minus treatment with 5-Aza-dC was characterized on the Agilent bioanalyzer RNA nano chip (Agilent, Foster City Calif., USA) for an RNA integrity number (RIN) of >9.0, labeled and hybridized to Affymetrix human genome U133 plus 2 GeneChips essentially according to manufacturer's instructions. The GeneChip scans were analyzed by GCOS (Affymetrix) and resulting probeset intensities normalized by the robust multi-array average (RMA) method (Irizarry, et al., Biostatistics 4: 249-264, 2003). […] The data were normalized separately for each cell line and robust multichip average (RMA) values for analysis were imported into Genespring GX 7.3. Genes re-expressed by 5-Aza-dC were identified as “absent” (undetectable) in all three replicate untreated samples and “present” or “marginal” (detectable) in two of three replicate 5-Aza-dC treated samples.
(§3) Three steps were implemented to identify aberrantly silenced and methylated genes in EOC. First, to identify genes potentially silenced by DNA methylation, genome wide epigenetic reexpression profiles were generated for two ovarian cancer cell lines. […] Genes showing potential methylation-based silencing were identified if they were undetectable in the untreated cells, but re-expressed by 5-Aza-dC treatments. Using these criteria 947 and 1091 probesets were identified in A2780 and CaOV3 cells respectively, that were reactivated.

DLEC1 = test: Positive control: re-expression and demethylation of DLEC1 (qPCR, clonal bisulphite sequencing); details: A2780 and CaOV3 cells treated with 5-Aza-dC
Procedure: as §1

CaOV3 cells = test: Pharmacological reactivation of methylated genes by 5-Aza-dC, Affymetrix U133 plus 2 expression arrays, CaOV3; details: CaOV3, 2.5 μM, 24 hours
Procedure: as §1, §2, §3

Nc1ncn([C@H]2C[C@H](O)[C@@H](CO)O2)c(=O)n1 [5-Aza-dC, 5-aza-2′ deoxycytidine]
probesets reactivated (undetectable in untreated cells, re-expressed by 5-Aza-dC) (A2780 cells; HGU133 plus 2.0): 947 probesets
Fold Change 5-aza-dC vs (A2780 cells; ARMXC1 mRNA, probeset 218694_at): 1.19
Fold Change 5-aza-dC vs (A2780 cells; HSPA2 mRNA, probeset 211538_s_at): 33.78
Fold Change 5-aza-dC vs (A2780 cells; IL18 mRNA, probeset 206295_at): 1.20
Fold Change 5-aza-dC vs (A2780 cells; LTBP2 mRNA, probeset 223690_at): 1.57
Fold Change 5-aza-dC vs (A2780 cells; PAPLN mRNA, probeset 226435_at): 2.78
Fold Change 5-aza-dC vs (A2780 cells; PARVA mRNA, probeset 222454_s_at): 1.78
Fold Change 5-aza-dC vs (A2780 cells; PEG3 mRNA, probeset 209242_at): 3.87
Fold Change 5-aza-dC vs (A2780 cells; PYCARD mRNA, probeset 221666_s_at): 3.72
Fold Change 5-aza-dC vs (A2780 cells; SCIN1 mRNA, probeset 1552365_at): 1.28
Fold Change 5-aza-dC vs (A2780 cells; SGNE1 mRNA, probeset 203889_at): 4.15
Fold Change 5-aza-dC vs (A2780 cells; SOCS1 mRNA, probeset 210001_s_at): 4.80
Fold Change 5-aza-dC vs (A2780 cells; SPOCK2 mRNA, probeset 202524_s_at): 1.41
Fold Change 5-aza-dC vs (A2780 cells; ZNF177 mRNA, probeset 207417_s_at): 1.61
Fold Change 5-aza-dC vs (A2780 cells; ZNF542 mRNA, probeset 239250_at): 2.35
re-expression and demethylation of the methylated gene DLEC1 (DLEC1): induce re-expression and demethylation
Fold Change 5-aza-dC vs (CaOV3 cells; BMP6 mRNA, probeset 206176_at): 1.25
Fold Change 5-aza-dC vs (CaOV3 cells; CST6 mRNA, probeset 231248_at): 1.96
probesets reactivated (undetectable in untreated cells, re-expressed by 5-Aza-dC) (CaOV3 cells; HGU133 plus 2.0): 1091 probesets
Fold Change 5-aza-dC vs (CaOV3 cells; ICAM4 mRNA, probeset 207194_s_at): 1.89
Fold Change 5-aza-dC vs (CaOV3 cells; KLF4 mRNA, probeset 220266_s_at): 3.78
Fold Change 5-aza-dC vs (CaOV3 cells; LOC134466 RNA, probeset 244289_at): 1.18
Fold Change 5-aza-dC vs (CaOV3 cells; PTGER mRNA, probeset 213933_at): 1.32
Fold Change 5-aza-dC vs (CaOV3 cells; TLE4 mRNA, probeset 204872_at): 1.20
